Experimental findings from ChEMBL document CHEMBL3352640, “Carbonic anhydrase inhibitors: design, synthesis, and biological evaluation of novel sulfonyl semicarbazide derivatives” (ACS Med Chem Lett, 2014) are described below.

The experiment concerns the target Carbonic anhydrase 9 (Homo sapiens, UniProt Q16790). Briefly: Inhibition of human carbonic anhydrase 9 preincubated for 15 mins by stopped flow CO2 hydration assay.

Compound `NS(=O)(=O)c1ccc(NC(=O)NNS(=O)(=O)c2ccc([N+](=O)[O-])cc2)cc1` showed a Ki of 20.5 nM. This counts as double-digit nanomolar.
With `NS(=O)(=O)c1ccc(NC(=O)NNS(=O)(=O)c2ccccc2)cc1` the figure was 73.9 nM.
For `NS(=O)(=O)c1ccc(NC(=O)NNS(=O)(=O)c2ccc(Cl)cc2)cc1` the value was 23.1 nM.
The compound `NS(=O)(=O)c1ccc(NC(=O)NNS(=O)(=O)c2ccc(F)cc2)cc1` returned a Ki of 25.1 nM.
For `Cc1ccc(S(=O)(=O)NNC(=O)Nc2ccc(S(N)(=O)=O)cc2)cc1` the value was 24 nM.
The compound `NS(=O)(=O)c1ccc(NC(=O)NNS(=O)(=O)c2ccc(Br)cc2)cc1` showed a Ki of 30.4 nM.
With `NS(=O)(=O)c1ccc(NC(=O)NNS(=O)(=O)c2ccc(Cl)c([N+](=O)[O-])c2)cc1` the figure was 38.7 nM; with `CC(=O)Nc1ccc(S(=O)(=O)NNC(=O)Nc2ccc(S(N)(=O)=O)cc2)cc1`, 81.3 nM; with `COc1ccc(S(=O)(=O)NNC(=O)Nc2ccc(S(N)(=O)=O)cc2)cc1`, 80.4 nM.
